Results published in publication PMC5931576, “Allosteric modulation of the farnesoid X receptor by a small molecule” (Scientific Reports, 2018).

Assays:
PDGF-Rα = assay: Kinase inhibition assay (radiometric or HTRF); assay type: biochemical
RXRα = test system: T1, RXRα; assay: Gal4-DBD-RXRα-LBD hybrid reporter gene assay; assay type: cell-based, human
T1 construct: expressed in transfected cells; host or cells: HEK293T
Text: (§1) The Gal4-fusion receptor plasmids pFA-CMV-hPPARα-LBD[34], pFA-CMV-hPPARγ-LBD[34], pFA-CMV-hPPARδ-LBD[34], pFA-CMV-hLXRα-LBD[35], pFA-CMV-hLXRβ-LBD[35], pFA-CMV-hRXRα-LBD[36], pFA-CMV-hRXRβ-LBD[36], pFA-CMV-hRXRγ-LBD[36], pFA-CMV-hRARα-LBD[36], pFA-CMV-hRARβ-LBD[36], pFA-CMV-hRARγ-LBD[36], pFA-CMV-hVDR-LBD[36] and pFA-CMV-hCAR-LBD[36] coding for the hinge region and ligand binding domain (LBD) of the canonical isoform of the respective nuclear receptor have been reported previously. pFR-Luc (Stratagene) was used as reporter plasmid and pRL-SV40 (Promega) for normalization of transfection efficiency and cell growth.
(§2) HEK293T cells were grown in DMEM high glucose, supplemented with 10% FCS, sodium pyruvate (1 mM), penicillin (100 U/mL) and streptomycin (100 μg/mL) at 37 °C and 5% CO2. The day before transfection, HEK293T cells were seeded in 96-well plates (2.5·10^4 cells/well). Before transfection, medium was changed to Opti-MEM without supplements. Transient transfection was carried out using Lipofectamine LTX reagent (Invitrogen) according to the manufacturer’s protocol with pFR-Luc (Stratagene), pRL-SV40 (Promega) and pFA-CMV-hNR-LBD. […] Luminescence was measured with an Infinite M200 luminometer (Tecan Deutschland GmbH) or a Tecan Spark 10 M luminometer (Tecan). […]

HepG2 cells = assay: WST-1 assay; assay type: cell-based; conditions: 48 h (or 24 h)
Protocol: In vitro biological evaluation […]
WST-1 assay (Roche Diagnostics International AG, Rotkreuz, Schweiz) was performed according to manufacturer’s protocol and as described previously. In brief, HepG2 cells were seeded in DMEM high glucose, supplemented with SP (1 mM), penicillin (100 U/mL), streptomycin (100 µg/mL) and 10% FCS in 96-well plates (3∙10^4 cells/well). After 24 h, medium was changed to DMEM high glucose, supplemented with penicillin (100 U/mL), streptomycin (100 µg/mL) and 1% charcoal stripped FCS and cells were incubated with 4 or 16 (final […]
and DMEM/1% DMSO as negative controls. After 48 h (or 24 h), WST reagent (Roche Diagnostics International AG) was added to each well according to manufacturer’s instructions. After 45 min incubation, absorption (450 nm/ reference: 620 nm) was determined with a Tecan Infinite M200 luminometer (Tecan Deutschland GmbH). Each experiment was repeated at least three times in triplicates. […]

c-Kit = assay: Kinase inhibition assay (radiometric or HTRF); assay type: biochemical
human FXR = molecular target: T2, human FXR (Homo sapiens, UniProt Q96RI1); assay: Full-length FXR transactivation (reporter gene) assay in HeLa cells; assay type: cell-based
T2 construct: expressed in transfected cells; host or cells: HeLa
T2 sequence (Q96RI1 1-486): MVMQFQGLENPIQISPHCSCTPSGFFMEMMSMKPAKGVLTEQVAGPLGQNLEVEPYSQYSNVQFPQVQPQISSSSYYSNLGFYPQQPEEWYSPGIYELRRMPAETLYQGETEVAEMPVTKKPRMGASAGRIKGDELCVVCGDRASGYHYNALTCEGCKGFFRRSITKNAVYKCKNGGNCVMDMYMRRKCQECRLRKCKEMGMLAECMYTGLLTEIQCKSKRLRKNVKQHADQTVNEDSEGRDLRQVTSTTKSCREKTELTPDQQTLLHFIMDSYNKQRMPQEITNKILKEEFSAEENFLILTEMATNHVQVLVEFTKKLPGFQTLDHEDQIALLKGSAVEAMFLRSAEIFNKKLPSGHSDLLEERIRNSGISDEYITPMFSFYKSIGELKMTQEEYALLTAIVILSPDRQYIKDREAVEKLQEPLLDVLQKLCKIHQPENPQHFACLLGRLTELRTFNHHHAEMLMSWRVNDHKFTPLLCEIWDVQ
T2 sequence (P19793 1-462 partner): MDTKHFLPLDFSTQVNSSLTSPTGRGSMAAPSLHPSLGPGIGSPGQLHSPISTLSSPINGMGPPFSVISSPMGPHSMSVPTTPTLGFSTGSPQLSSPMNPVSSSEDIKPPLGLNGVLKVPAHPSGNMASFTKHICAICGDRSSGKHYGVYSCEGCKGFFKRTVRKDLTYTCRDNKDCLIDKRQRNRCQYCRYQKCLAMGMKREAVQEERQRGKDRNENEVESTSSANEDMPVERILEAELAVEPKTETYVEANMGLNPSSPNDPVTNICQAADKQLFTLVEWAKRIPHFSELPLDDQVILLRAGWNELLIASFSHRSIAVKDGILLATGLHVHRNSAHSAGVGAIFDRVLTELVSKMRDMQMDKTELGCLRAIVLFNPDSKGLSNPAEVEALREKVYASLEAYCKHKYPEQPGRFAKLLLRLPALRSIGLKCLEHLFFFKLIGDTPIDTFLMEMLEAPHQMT

[1] = test system: PPARα/γ/δ, LXRα/β, RXRα/β/γ, RARα/β/γ, VDR and CAR; assay: Hybrid reporter gene assays for nuclear receptors related to FXR; assay type: cell-based, human
Text: as §1, §2

In the case of CS(=O)(=O)O.CS(=O)(=O)O.CS(=O)(=O)O.CS(=O)(=O)O.Cc1ccc(NC(=O)c2ccc(Cl)cc2)cc1Nc1nccc(-c2cccnc2)n1.Cc1ccc(NC(=O)c2ccc(Cl)cc2)cc1Nc1nccc(-c2cccnc2)n1.O.O.O [compound 16, 4-Chloro-N-(4-methyl-3-(4-(pyridin-3-yl)pyrimidin-2-ylamino)phenyl)benzamide dimesylate-sesquihydrate], the “Inhibition of PDGF-Rα” value (PDGF-Rα) is reported as “potent inhibitor”, the “RXR agonistic activity (activation of RXRα-Gal4 chimera receptor)” value (RXRα) is reported as “did not activate” and the “WST-1, mean percent of untreated control” value (HepG2 cells; HepG2, 0.1 µM) is reported as 113 ± 1%. For the same compound, the “WST-1, mean percent of untreated control” value (HepG2 cells; HepG2, 0.3 µM) was 107 ± 7%, the “WST-1, mean percent of untreated control” value (HepG2 cells; HepG2, 1 µM) was 112 ± 3% and the “WST-1, mean percent of untreated control” value (HepG2 cells; HepG2, 10 µM) was 92 ± 2%. For the same compound, the “WST-1, mean percent of untreated control” value (HepG2 cells; HepG2, 50 µM) was 87 ± 2%, the “WST-1, mean percent of untreated control” value (HepG2 cells; HepG2, 16 (0.3 µM) + 1 (50 µM)) was 93 ± 7% and the “Inhibition of c-Kit” value (c-Kit) was “potent inhibitor”. The “Effect on transactivation efficacy of FXR agonists 1–3” value (human FXR; 16 at 10 µM) was “significantly enhances”, the Emax (human FXR; HeLa, read-out: hFXR: max. rel. act.) was 8.4% and the EC50 (human FXR; full-length reporter gene assay, HeLa cells, mean ± SEM, n ≥ 3, read-out: hFXR: EC50) was 1.9 ± 0.6 nM. The “Effect on EC50-value of 1” value (human FXR; in presence of 0.1 µM 16) was “not affected”, the “Increase of maximum relative activation of 1” value (human FXR; in presence of 0.1 µM 16) was “about 50%” and the “Selectivity over nuclear receptors related to FXR” value [1] was “high selectivity”.
